Measured values: patent publication US20230050202A1, “ENGINEERED FIBROBLASTS AS CELL THERAPY TO TREAT CANCER VIA TUMOR STROMA STABILIZATION” (The Johns Hopkins University, priority 2020, published 2023)

Columns and labels:
[1] = Rheological measurement (LAOS) of crosslinked collagen gel; format: physicochemical
Experimental: ECM crosslinking. ECM-encapsulated 67NR spheroids were prepared as previously described. After 1-hour incubation, genipin (Sigma-Aldrich, G4796) was mixed with DMEM to reach final concertation of 0.5 mM and 1 mM. The solutions were then added to the samples and incubated for 24 hours. The DMSO-added DMEM were used as a control for the experiment. The samples were then washed with PBS for further usage. Elastic modulus measurement. The Large […] Oscillatory Shear (LAOS) was used to test the shear modulus of the crosslinked and uncrosslinked collagen gel. The collagen gel was prepared in disks and subjected to sinusoidal rotational deformation. The amplitude of the applied strain (y) to the material was increased at a fixed rotational frequency (w) of 1 rad/s. The analysis utilized a viscoelastic stress response model wherein the shear stress is computed as a function of strain ranging from 0.01%-15%. The Fourier Transform method was utilized to quantify the nonlinear stress response of ECM samples under increasingly large angular shear strain. LAOS was performed using an Anton Paar Modular Compact Rheometer (MCR 302) with a parallel plate (diameter 8 mm) at 37° C. The measurement values of the shear modulus were then used obtain the elastic modulus by the formula: E=2G(1+v) where E is elastic modulus, G is shear modulus, and v is the Poisson ratio. The Poisson ratio was assumed to be 0.5.

[2] = test system: FSP1 expression in NIH-3T3 fibroblasts; assay: FSP1 immunofluorescence in fibroblasts, 67NR spheroid coculture; format: cell-based, mouse
Experimental: (§1) Spheroid encapsulation with fibroblasts: for coculture, 40 μL collagen was used to re-suspend 2×10^5 NIH-3T3 cells after centrifugation. The fibroblasts-containing liquid collagen was then added to the glass bottom well where a spheroid was placed in its center. The mixture was allowed to gel at room temperature for 2 hours. 2 mL DMEM was then added into the well. The embedded spheroid was incubated for at least 1 day or longer, as indicated in the text, before being used.
(§2) ECM crosslinking. ECM-encapsulated 67NR spheroids were prepared as previously described. After 1-hour incubation, genipin (Sigma-Aldrich, G4796) was mixed with DMEM to reach final concertation of 0.5 mM and 1 mM. The solutions were then added to the samples and incubated for 24 hours. The DMSO-added DMEM were used as a control for the experiment. The samples were then washed with PBS for further usage.
(§3) Immunofluorescence. Samples were fixed in 4% paraformaldehyde for 30 minutes, permeabilized with 0.1% Triton X100 (Sigma-Aldrich, X100) in PBS for 30 minutes. PBS containing 2% bovine serum albumin (Sigma-Aldrich, A7906) and 0.1% Tween-20 (Promega) was then added to sample for 30 minutes for blocking. All antibody was diluted in PBS with 1% bovine serum albumin. The fixed cells were incubated with the primary antibody for overnight at 4° C., followed by washing using PBS for 3 times, and then incubated with the secondary antibody for 2 hours. After washing, the samples were immersed in PBS and stored in 4° C. for further usage. […]
(§4) Fibril coherence analysis was performed using Quantitative orientation measurement in orientationJ21. The immunostaining was quantified using Fiji/ImageJ software. […]
(§5) where II and AI denotes the fluorescence intensity, and the area of the cell, respectively. I2 and A2 denotes the fluorescence intensity, and the area of the larger region encompassing the cell and the surrounding background, respectively. […] The corrected fluorescence intensity was then recorded for each cell.

[3] = test system: 67NR spheroids; assay: Cytotoxicity in genipin-treated 67NR-embedded ECM; format: cell-based, mouse; details: 0.5 mM genipin, 24 hours
Experimental: as §2
The corollary to the observation that ECM fibril alignment promotes CAF induction in the coculture is that suppressing such alignment will attenuate it. To confirm this, genipin, a biocompatible crosslinking reagent, was used to suppress the fibril reorganization. The optimal genipin concentration was identified to be 0.5 mM. […] Yet the fibril alignment was suppressed by 28% (FIGS. 5A-5B). […] Though ECM crosslinking might lead to CAF induction because of ECM stiffening, it was not the case in these experiments. […] Having had established the optimal genipin concentration to suppress fibril alignment, it was used to evaluate whether CAF induction in cocultured fibroblasts would be attenuated. […] To exclude the possibility that genipin directly downregulates CAF markers in fibroblasts, their expression was evaluated in genipin-treated samples containing fibroblasts only.

[4] = test system: 67NR-embedded ECM; assay: Line FRAP diffusion enhancement time in spheroid-embedded ECM; format: cell-based, mouse; details: 0.5 mM genipin-treated 67NR-embedded ECM, 2,000 kDa FITC-dextran
Experimental: ECM crosslinking. ECM-encapsulated 67NR spheroids were prepared as previously described. After 1-hour incubation, genipin (Sigma-Aldrich, G4796) was mixed with DMEM to reach final concertation of 0.5 mM and 1 mM. The solutions were then added to the samples and incubated for 24 hours. The DMSO-added DMEM were used as a control for the experiment. The samples were then washed with PBS for further usage. Fluorescence recovery after photobleaching. 10 mg/mL of 2,000 kDa fluorescein isothiocyanate (FITC)-Dextran (SigmaAldrich, FD2000S) was added to the collagen gel and incubated for 30 minutes at 37° C. […] The characteristic fluorescence recovery times τD, when 64% of the fluorescence intensity is recovered, was calculated based on the fitted curve. […] Line fluorescence recovery was performed after photobleaching (FRAP) to measure the diffusivity of the spheroid-embedded ECM. […] To assess whether there is enhancement in diffusion rates in the radial direction from the spheroid, the metric “diffusion enhancement time (τDE)” was introduced, defined as the difference in the characteristic fluorescence recovery times τD, when 64% of the fluorescence intensity is recovered, between the two stripes: […]) where rD(radial) represents the rD measured in the radial direction, and rD(orthogonal) in the corresponding orthogonal direction. […]

[5] = test system: 67NR-embedded ECM; assay: ECM fibril alignment (coherence analysis) in 67NR spheroid-embedded ECM; format: cell-based, mouse; details: 0.5 mM genipin, 24 hours, vs control
Experimental: Spheroid encapsulation without fibroblast: after the spheroid adhered to the glass bottom well via collagen, the liquid collagen kept at the 4° C. was poured to the well to embed the spheroid. 40 μL liquid collagen was slowly pipetted into the well and allowed to gel for 2 hours at room temperature. 2 mL DMEM was then added into the well. The embedded spheroid was incubated for at least 1 day or longer before being used.
as §2, §4
To determine whether 67NR spheroid alone is sufficient to align the fibrils, time-lapse imaging was performed by embedding EpH4-Ev and 67NR spheroids in ECM without fibroblasts. […] To quantify the degree of fibril alignment, coherence analysis 21 was performed. […] Fibril orientations within and outside the 300-μm perimeter from the spheroid were evaluated separately.

[6] = test system: αSMA expression in NIH-3T3 fibroblasts; assay: αSMA immunofluorescence in fibroblasts, 67NR spheroid coculture; format: cell-based, mouse
Experimental: as §1, §2, §3, §4, §5

[7] = test system: αSMA expression in human lung fibroblasts (MRCS); assay: TGFβ1-mediated CAF induction (αSMA expression) in human lung fibroblasts; format: cell-based; details: control fibroblasts, TGFβ1 10 ng/mL, vs non-treated group, p<0.001
From the text: Prototype STAR fibroblasts were generated by introducing the dominant negative form of RhoA (RhoA^T19N) into to human lung fibroblasts (MRCS) to reduce RhoA signaling, a key mediator for CAF phenotypes.

[8] = fibroblast-only samples after genipin treatment
[9] = genipin-treated cocultures, fibroblasts outside 300-μm perimeter, treatment vs control
[10] = genipin-treated cocultures, fibroblasts within the 300-μm perimeter from the spheroid

Row | ECM stiffening ([1]; 0.5 mM genipin, 24 hours) | shear moduli vs uncrosslinked control ([1]; 0.5 mM genipin-treated ECM) | elastic modulus of the ECM (mean±s.d.) ([1]; ECM treated with 0.5 mM genipin) [Pa] | ECM became stiffer ([1]; ECM treated with 1 mM genipin vs un-crosslinked ECM) [%] | Molecule | FSP1 expression [2, 8] | FSP1 expression decreased [2, 9] [%] | FSP1 expression reduced [2, 10] [%] | cytotoxicity [3] | rDE value (diffusion enhancement time) [4] | fibril alignment suppressed [5] [%] | αSMA expression [6, 8] | αSMA expression decreased [6, 9] [%] | αSMA expression reduced [6, 10] [%] | αSMA expression increase [7] [%]
1 | negligible ECM stiffening | comparable | 755±163 | 29 | COC(=O)C1=CO[C@@H](O)[C@@H]2C(CO)=CC[C@H]12 [genipin] | remained unchanged | 36 | 23 | no observable cytotoxicity | decreased to a negligible level | 28 | remained unchanged | 39 | 33 | –
2 | – | – | – | – | TGFβ1: cytokine used at 10 ng/mL to induce CAF phenotype in fibroblasts | – | – | – | – | – | – | – | – | – | 50
